# Like-named read-outs stand apart in the source and are kept apart here. Ends that are not written are not given here.
# B1: human defensin 5: Source: Homo sapiens (peptide, UniProt Q01523 20-94, looked up)
# Defensin alpha 5: ESLQERADEATTQKQSGEDNQDLAISFAGNGLSALRTSGSQARATCYCRTGRCATRESLSGVCEISGRLYRLCCR
# modifications: Defensin-5
# Experiments:
# SARS-CoV-2 = conditions: cited from earlier work
# [1] = biological target: recombinant SARS-CoV-2 M^pro (Severe acute respiratory syndrome coronavirus 2, UniProt P0DTD1)
# [2] = ref [44]; cited from earlier work
# [3] = ref [46]; cited from earlier work
molecule,measurement,setting,value
"LL-37: Source: Homo sapiens (LLGDFFRKSKEKIGKEFKRIVQRIKDFLRNLVPRTES; Antibacterial peptide LL-37; UniProt P49913 134-170, looked up)",Effect against viruses / SARS-CoV-2,SARS-CoV-2; ref [36],effective against viruses and a few against SARS-CoV-2
"Protegrin 1: Source: Sus scrofa (RGGRLCYCRRRFCVCVGR; ends and bridges not checked; cysteine pairing not given here; UniProt P32194 131-148, looked up)",Effect against viruses / SARS-CoV-2,SARS-CoV-2; ref [36],effective against viruses and a few against SARS-CoV-2
Protegrin 2: cysteine rich potent antimicrobial peptide originally isolated from pigs; two cysteine-cysteine disulfide bridges; PDB ID 2MUH,M^pro proteolytic cleavage activity,[1],inhibits the proteolytic cleavage activity of M^pro
same,Antimicrobial activity,[2],potent
same,Toxicity,[3],low toxicity
"beta-defensin 1: naturally occurring antimicrobial peptide (DHYNCVSSGGQCLYSACPIFTKIQGTCYRGKAKCCK; ends and bridges not checked; cysteine pairing not given here; UniProt P60022 33-68, looked up)",Effect against viruses / SARS-CoV-2,SARS-CoV-2; ref [36],effective against viruses and a few against SARS-CoV-2
B1,Effect against viruses / SARS-CoV-2,"SARS-CoV-2; ref [38], [39]",effective against viruses and a few against SARS-CoV-2
